Assay results reported in patent US20030181659A1, “Thrombopoietin receptor modulating peptide” (priority 2000, published 2003).
Like-named read-outs stand apart in the source and are kept apart here. Each block holds one molecule with its values, some of them ahead of it. Where a SMILES comes first, the peptide text is derived from it.

How the values were obtained:
TPO-R [1] = target: T1, TPO-R (Homo sapiens, UniProt P40238); assay: In vitro signalling assay, dose response (STAT5 phosphorylation); assay type: cell-based; details: dose response 0.3 nM to 30 μM
T1 construct: endogenous in cells; host or cells: TF-1 cells
T1 sequence (P40238 26-635): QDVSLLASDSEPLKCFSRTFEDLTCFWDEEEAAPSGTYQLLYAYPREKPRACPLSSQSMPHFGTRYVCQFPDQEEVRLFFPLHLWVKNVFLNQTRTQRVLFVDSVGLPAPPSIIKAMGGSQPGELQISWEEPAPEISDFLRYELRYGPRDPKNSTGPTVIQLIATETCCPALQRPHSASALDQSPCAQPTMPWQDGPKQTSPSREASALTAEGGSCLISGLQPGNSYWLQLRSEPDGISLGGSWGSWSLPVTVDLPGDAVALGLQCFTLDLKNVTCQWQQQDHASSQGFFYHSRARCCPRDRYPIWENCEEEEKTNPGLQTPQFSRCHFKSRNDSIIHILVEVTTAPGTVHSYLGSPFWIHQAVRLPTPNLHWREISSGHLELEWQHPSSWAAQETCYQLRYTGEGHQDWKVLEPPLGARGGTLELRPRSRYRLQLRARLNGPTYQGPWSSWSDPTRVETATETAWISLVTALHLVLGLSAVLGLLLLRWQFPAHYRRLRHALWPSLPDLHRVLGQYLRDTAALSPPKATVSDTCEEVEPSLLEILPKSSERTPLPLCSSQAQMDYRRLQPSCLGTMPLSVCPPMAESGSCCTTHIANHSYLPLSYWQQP
Procedure: (§1) Treatment of the cells: TF-1 cells were grown to an approximate density of 1×10^6 cells in RPMI 1640 media with 1× Penicillin/Streptomycin, 2 mM glutamin, 10% fetal bovine serum (Hyclone) and 1 ng/ml GM-CSF, centrifuged down and resuspended in media with 3% serum and no GM-CSF. The cells were starved for 14-18 hours at 37° C. (5% CO2), spun down and resuspended at a density of 1×10^6 cells/ml in a medium without serum and GM-CSF. 2 ml of cell suspension was treated with the oligopeptide or TPO (as indicated per experiment) at 37° C. for 30 min. (5% CO2). 10 ml of ice-cold cell wash buffer was added per Falcon tube and centrifuged down quickly at 4° C. and 3000 rpm,. The medium was carefully aspirated and the wash repeated twice with PBS.
The following steps were performed on ice. The medium was aspirated and 0.6 ml of 2× lysis buffer per tube was added. This was pipetted up and down and transferred to Eppendorf tubes, placed on ice for circa 30 min., and centrifuged at 14,000×g for 10 min. The supernatant (lysate) was used in immunoprecipitations.
Immunoprecipitations: 20-40 μL of GammaBind G Sepharose slurry was used per immunoprecipitation. The protein G beads were washed several times with 0.5× lysis buffer in Eppendorf tubes and 1-4 μg of PY-99 antibody (Santa Cruz-Biotechnology) was added per immunoprecipitation. The tubes were incubated with end-over-end rotation for 2 h at room temperature. The lysate was added and the tubes further incubated with end-over-end rotation overnight at 4° C. The beads were washed 3 times with 1× lysis buffer and once with 0.5 M Tris pH 6.5. 50 μl of SDS-sample buffer was added and the samples were boiled for 3 min prior to being applied to the gels.
Western blot analysis: about 10 μl/sample was run on a 8% Polyacrylamide mini gel, transferred to PVDF membrane (Millipore), blocked for 1 h in blocking buffer and incubated with αSTAT5 antibody (Santa Cruz-Biotechnology) overnight at 4° C. in an 1:1000 dilution. The membrane was washed, incubated with appropriate alkaline phosphatase conjugated secondary antibody, 1:2000 dilution at room temperature for 2 h. The PVDF-membrane was washed with Blotto and developed with NBT/BCIP (Cappel).
Dose-response curves of the present oligopeptides were performed and their activity was compared to the wild type TPO-Rp.
Peptide dose response activity was evaluated primarily by in vitro signalling assays. Phosphorylation and thus activation of STAT5, a substrate of JAK2 kinase that is activated by TPO-Rp signal transduction, was measured. Each oligopeptide activity was addressed through a broad range of concentrations. Peptides were tested at concentrations of 0.3, 3, 10, 30 nM and 0.1, 0.3, 3 and 30 μM TPO-Rp. Oligopeptide activity as a measurement of STAT5 phosphorylation in each experiment was compared to activity obtained with 10 ng/ml of TPO, a hormone concentration that gives a maximal activation and signalling through TPO-R. All the peptides were evaluated four to five times in independent experiments. All the data was collected, Western blots were scanned and the intensity of the STAT5 phosphorylation was quantified.
The activity of each oligopeptide was addressed as percent of its maximum activity; thus 100% activity was assigned to the value of STAT5 protein phosphorylation obtained with 30 μM oligopeptide concentration.

carboplatin treated mice [2] = assay type: in vivo; details: for effects on other blood components: mouse, in vivo
From the text: The model used for the in vivo experiments was reported previously (Akahori et al. (1996) Stem Cells 14:678-689, Akahori et al. (1996) Br. J. Haematol. 94:722-728, Shibuya et al. (1998) Blood 91:37-45, Andrews et al. (1996) Stem Cells 14:661-677). Improvements and modifications that were introduced are indicated below.
Each test group (PBS, TPO, or TPO-Rp) was given as a single daily dose administered by intraperitoneal injection. Daily doses were begun on day 0 and continued throughout the duration of the experimental period (day 10). Two i.p. injections of carboplatin 90 mg/kg each (PBS for group 11) were given on days 0 and 4.
(§2) Blood collections were taken on days −0 (basal), 8, 11, 14, and 18. Blood was obtained by sampling from the tail of mice (8 week old male C57BL/6Y mice), followed by cauterisation. A volume of 80 μl of blood from each mouse was collected into a heparinized blood collection tube. The 80 μl of blood was then mixed with 160 μl of saline containing sufficient EDTA (0.225%) to provide for anticoagulation.
[…] Carboplatin is used to induce thrombocytopenia. In order to work with a model that is as similar as possible to clinical situations, a previously reported carboplatin model (Akahori et al. (1996) Stem Cells 14:678-689, Akahori et al. (1996) Br. J. Haematol. 94:722-728, Shibuya et al. (1998) Blood 91:37-45, Andrews et al. (1996) Stem Cells 14:661-677) has been carefully studied and modified accordingly. Additionally, a method for animal bleeds has been carefully studied, in order to work with animals that show the highest response to a given drug and which are at the same time under a minimum of stress (see Methods above). Thus, the dose of carboplatin has been increased to 180 mg/kg and was given by two intraperitoneal (i.p) injections on day 0 (half-dose) and day 4 (second half-dose). Carboplatin induced severe thrombocytopenia on day eight.

TPO-R [3] = target: T1, TPO-R; assay: In vitro signalling assay (STAT5 phosphorylation in TF-1 cells) of stored peptide samples; assay type: cell-based; details: day 30, solution in water stored at −20° C.
Procedure: as §1
The following steps were performed on ice. The medium was aspirated and 0.6 ml of 2× lysis buffer per tube was added. […]
The activity of the oligopeptides of the present invention and wild type TPO-Rp was examined by in vitro signalling assays. […] Phosphorylation and thus activation of STATS, a substrate of JAK2 kinase that is activated by TPO-R signal transduction, was measured. […] All the peptides were evaluated three to four times in independent experiments. All the data were collected, Western blots were scanned, and intensity of the STAT5 phosphorylation was quantified.

carboplatin treated mice [4] = assay: Carboplatin (200 mg/kg) induced thrombocytopenia in mice; assay type: in vivo; details: for platelet number: carboplatin 200 mg/kg
Procedure: Each test group was given a single daily dose administered by intraperitoneal injection. Daily doses were begun on day 0 and continued throughout the duration of the experimental period (day 13). Minimal doses were given on indicated days: 0 and 4; 0, 4 and 8; 0, 4, 8 and 12; days 8 through 14. Two i.p. injections of carboplatin 100 mg/kg were given on days 0 and 4.
as §2, with “days 0” for “days −0”, “11, 14” for “11, 14,”, “18. Blodd” for “18. Blood”, “the tails” for “the tail”, “male C57BL/6J mice)” for “male C57BL/6Y mice),”
The dose of carboplatin has been increased to 200 mg/kg and was given as a cumulative dose by two intraperitoneal (i.p.) injections on day 0 (half-dose) and day 4 (second half-dose). Carboplatin induced severe thrombocytopenia on day eleven.

[5] = target: thrombopoietin receptor (TPO-R) on TF-1 cells (UniProt P40238); assay: cell-based or functional assay

Molecule: CC(C)C[C@H](NC(=O)[C@H](CCCNC(=N)N)NC(=O)[C@H](C)NC(=O)[C@H](CCCNC(=N)N)NC(=O)[C@H](CC(C)C)NC(=O)[C@H](CCC(N)=O)NC(=O)[C@H](CC(C)C)NC(=O)[C@H](CCCNC(=N)N)NC(=O)[C@H](Cc1ccc(O)cc1)NC(=O)[C@H](CCCNC(=N)N)NC(=O)[C@H](CO)NC(=O)[C@H](CCCNC(=N)N)NC(=O)[C@@H]1CCCN1C(=O)[C@H](CCCNC(=N)N)NC(=O)[C@H](CC(C)C)NC(=O)[C@H](CCC(=O)O)NC(=O)[C@H](CC(C)C)NC(=O)[C@@H](NC(=O)CNC(=O)CNC(=O)[C@H](CCCNC(=N)N)NC(=O)[C@H](C)N)[C@@H](C)O)C(=O)N[C@@H](CC(N)=O)C(=O)O [TPO-Rp wild type, ARGGTLELRPRSRYRLQLRARLN] (H-ARGGTLELRPRSRYRLQLRARLN-OH; N-terminus and C-terminus assumed)
activity (STAT5 phosphorylation) after storage (TPO-R [3]): significant decrease in activity
platelet (thrombocyte) number, percent change from basal (carboplatin treated mice [2]; 30 μg/kg/day i.p. daily from day 0, carboplatin 180 mg/kg): significantly increased the thrombocyte number
platelet (thrombocyte) number, percent change from basal (carboplatin treated mice [2]; 300 μg/kg/day i.p. daily from day 0, carboplatin 180 mg/kg): significantly increased the thrombocyte number
survival rate of treated animals (carboplatin treated mice [2]; CHI-square analysis, carboplatin 180 mg/kg): statistically significant survival rate
effects on other blood components (carboplatin treated mice [2]): None of the peptides used

Molecule: SEQ ID No. 1: oligopeptide A1-L18 of wild type TPO-Rp, 18 amino acids, without R9A, R11A substitutions (ARGGTLELRPRSRYRLQL; listed as Homo sapiens)
activity compared to wild type TPO-Rp (STAT5 phosphorylation) (TPO-R [1]): activity comparable to the wild type TPO-Rp

Molecule: SEQ ID No. 3: shortest oligopeptide, 15 amino acids long, G4-L18 of wild type TPO-Rp (GTLELRPRSRYRLQL; listed as Homo sapiens)
activity compared to wild type TPO-Rp (STAT5 phosphorylation) (TPO-R [1]): retained activity comparable to wild type TPO-Rp

Molecule: SEQ ID No. 5: oligopeptide G4-R21 of wild type TPO-Rp (GTLELRPRSRYRLQLRAR; listed as Homo sapiens)
activity compared to wild type TPO-Rp (STAT5 phosphorylation) (TPO-R [1]): activity identical to wild type TPO-Rp

Molecule: TPO: thrombopoietin, natural hormone, glycoprotein ligand of c-mpl (TPO-R)
platelet number (carboplatin treated mice [4]; 2.4 μg/kg/day days 0 through 13): again unable to protect decrease in platelets
platelet number (carboplatin treated mice [4]; 10 μg/kg/day days 0 through 13): some effect that does have statistical significance
effect on thrombocytopenia (carboplatin treated mice [4]; 10 μg/kg/day from day 8 through 14, carboplatin from day 0): did not show a significant effect on thrombocytopenia
platelet number (carboplatin treated mice [2]; 2.4 μg/kg/day i.p. daily, carboplatin 180 mg/kg): unable to prevent a decrease in platelets

Further lines, with some results ahead:

effects on other blood components (carboplatin treated mice [2]): None of the peptides used
Molecule: CC(C)C[C@H](NC(=O)[C@H](CCC(N)=O)NC(=O)[C@H](CC(C)C)NC(=O)[C@H](CCCNC(=N)N)NC(=O)[C@H](Cc1ccc(O)cc1)NC(=O)[C@H](CCCNC(=N)N)NC(=O)[C@H](CO)NC(=O)[C@H](C)NC(=O)[C@@H]1CCCN1C(=O)[C@H](C)NC(=O)[C@H](CC(C)C)NC(=O)[C@H](CCC(=O)O)NC(=O)[C@H](CC(C)C)NC(=O)[C@@H](NC(=O)CN)[C@@H](C)O)C(=O)O [SEQ ID No. 4] (H-GTLELAPASRYRLQL-OH; N-terminus and C-terminus assumed)
activity compared to wild type TPO-Rp (STAT5 phosphorylation) (TPO-R [1]): retained activity comparable to wild type TPO-Rp
effect on platelet levels / thrombocytopenia (carboplatin treated mice [2]; dose not given, carboplatin 180 mg/kg): some effect on platelet levels

activity compared to wild type TPO-Rp (STAT5 phosphorylation) (TPO-R [1]): activity identical to wild type TPO-Rp
Molecule: SEQ ID No. 6: oligopeptide G4-R21 of wild type TPO-Rp, R9A, R11A form (GTLELAPASRYRLQLRAR; listed as Homo sapiens)

STAT5 phosphorylation in TF-1 cells; TPO concentration giving maximal activation [5]: 10 ng/mL
Molecule: thrombopoietin (TPO) (from UniProt P40225 22-353) (ligand)
